# Reference: patent US11691976B2, “Coelenterazine analogues” (PROMEGA CORPORATION, priority 2018, dated 2023)
# Biological target: NANOLUC® Luciferase (Oplophorus gracilirostris, UniProt Q9GV45, A31E/A60N/A81I/F95D/I117V/K70R/L54V/L99Q/M102K/N193R/P142E/Q151K/Q38R/Q45L/V71I/Y165I)
# Assay: Luminescence assay: substrate titration with purified NANOLUC Luciferase (RLU, signal half-life, Km)
# Type: biochemical
# Settings: 100 μM substrate; initial light output three minutes after substrate addition; relative to furimazine set to 1.0
# Method: Each compound to be screened was dissolved in DMSO (5 mM) and then further diluted to 100 μM in NANO-GEO® Luciferase Assay Buffer. A two-fold dilution series was prepared for each substrate by serially diluting 500 μl of the substrate solution with 500 μl of NANO-GLO® Luciferase Assay Buffer. Each diluted substrate titration was then combined in equal volumes with purified NANOLUC® Luciferase diluted into CO2 independent media+10% FBS. Initial light output for each substrate was measured in a GLOMAX®-Multi+ luminometer three minutes after substrate addition and then at five minute intervals as a means to determine signal half-life. Signal half-life was calculated using GraphPad Prism One Phase Decay regression and Km and Vmax were calculated using GraphPad Prism using Michaelis-Menten regression.
# The synthesized coelenterazine analogues (compounds of formula (I) and (II)) were evaluated for their suitability as luciferase substrates. NANOLUC® luciferase was employed for the screening because it is a small (19 kDa), stable, and particularly bright enzyme. […] RLU, half-life, and Km values are for furimazine is set to 1.0. […]
# Sequence of NANOLUC® Luciferase (Q9GV45 28-196 with tags or gaps with the stated changes limits assumed): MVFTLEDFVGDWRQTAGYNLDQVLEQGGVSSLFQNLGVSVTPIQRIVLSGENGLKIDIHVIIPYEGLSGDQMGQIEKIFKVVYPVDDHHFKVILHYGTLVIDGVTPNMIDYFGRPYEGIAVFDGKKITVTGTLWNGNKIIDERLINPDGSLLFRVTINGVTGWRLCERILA
row,Structure (SMILES),RLU (@100 μM)
1,"O=c1c(Cc2ccco2)nc2c(Cc3ccccc3)[nH]c(-c3cccc([N+](=O)[O-])c3)cn1-2 [JRW-1424, 8-benzyl-2-(furan-2-ylmethyl)-6-(3-nitrophenyl)imidazo[1,2-a]pyrazin-3(7H)-one]",0.14
2,"O=c1c(Cc2ccco2)nc2c(Cc3ccccc3)[nH]c(-c3ccc(Cl)c(O)c3)cn1-2 [JRW-1483, 8-benzyl-6-(4-chloro-3-hydroxyphenyl)-2-(furan-2-ylmethyl)imidazo[1,2-a]pyrazin-3(7H)-one]",0.008
3,"O=c1c(Cc2ccco2)nc2c(Cc3ccccc3)[nH]c(-c3cc(O)cc(Cl)c3)cn1-2 [JRW-1479, 8-benzyl-6-(3-chloro-5-hydroxyphenyl)-2-(furan-2-ylmethyl)imidazo[1,2-a]pyrazin-3(7H)-one]",0.43
4,"Nc1cccc(-c2cn3c(=O)c(Cc4ccc(F)cc4)nc-3c(Cc3ccccc3)[nH]2)c1F [JRW-1635, 6-(3-amino-2-fluorophenyl)-8-benzyl-2-(4-fluorobenzyl)imidazo[1,2-a]pyrazin-3(7H)-one]",1.0
5,"O=c1c(Cc2ccco2)nc2c(Cc3ccccc3)[nH]c(-c3cc(O)ccc3Cl)cn1-2 [JRW-1525, 8-benzyl-6-(2-chloro-5-hydroxyphenyl)-2-(furan-2-ylmethyl)imidazo[1,2-a]pyrazin-3(7H)-one]",0.4
6,"COc1cccc(Cc2nc3c(Cc4ccccc4)[nH]c(-c4cccc(O)c4)cn-3c2=O)c1 [JRW-1047, 8-benzyl-6-(3-hydroxyphenyl)-2-(3-methoxybenzyl)imidazo[1,2-a]pyrazin-3(7H)-one]",0.5
7,"Cc1cccc(Cc2[nH]c(-c3cccc(O)c3F)cn3c(=O)c(Cc4ccco4)nc2-3)c1 [JRW-1370, 6-(2-fluoro-3-hydroxyphenyl)-2-(furan-2-ylmethyl)-8-(3-methylbenzyl)imidazo[1,2-a]pyrazin-3(7H)-one]",0.036
8,"Nc1cccc(-c2cn3c(=O)c(Cc4ccco4)nc-3c(Cc3ccccc3)[nH]2)c1F [JRW-1482, 6-(3-amino-2-fluorophenyl)-8-benzyl-2-(furan-2-ylmethyl)imidazo[1,2-a]pyrazin-3(7H)-one]",1.7
9,"Nc1cc(-c2cn3c(=O)c(Cc4ccco4)nc-3c(Cc3ccccc3)[nH]2)ccc1F [JRW-1536, 6-(3-amino-4-fluorophenyl)-8-benzyl-2-(furan-2-ylmethyl)imidazo[1,2-a]pyrazin-3(7H)-one]",0.08
10,"O=c1c(Cc2ccco2)nc2c(Cc3ccc(F)cc3)[nH]c(-c3cccc(O)c3)cn1-2 [JRW-1498, 8-(4-fluorobenzyl)-2-(furan-2-ylmethyl)-6-(3-hydroxyphenyl)imidazo[1,2-a]pyrazin-3(7H)-one]",0.049
11,"O=c1c(Cc2ccccc2)nc2c(Cc3ccccc3)[nH]c(-c3cccc(O)c3)cn1-2 [JRW-1043, 2,8-dibenzyl-6-(3-hydroxyphenyl)imidazo[1,2-a]pyrazin-3(7H)-one]",0.8
12,"O=c1c(Cc2ccc3c(c2)OCO3)nc2c(Cc3ccccc3)[nH]c(-c3cccc(O)c3)cn1-2 [JRW-0777, 2-(benzo[d][1,3]dioxol-5-ylmethyl)-8-benzyl-6-(3-hydroxyphenyl)imidazo[1,2-a]pyrazin-3(7H)-one]",0.45
13,"O=c1c(Cc2ccco2)nc2c(Cc3ccccc3)[nH]c(-c3cc(O)cc(F)c3)cn1-2 [JRW-1526, 8-benzyl-6-(3-fluoro-5-hydroxyphenyl)-2-(furan-2-ylmethyl)imidazo[1,2-a]pyrazin-3(7H)-one]",1.0
14,"COc1ccc(Cc2nc3c(Cc4ccccc4)[nH]c(-c4cccc(O)c4)cn-3c2=O)cc1 [JRW-1052, 8-benzyl-6-(3-hydroxyphenyl)-2-(4-methoxybenzyl)imidazo[1,2-a]pyrazin-3(7H)-one]",0.4
15,"Nc1ccc(F)c(-c2cn3c(=O)c(Cc4ccco4)nc-3c(Cc3ccccc3)[nH]2)c1 [JRW-1411, 6-(5-amino-2-fluorophenyl)-8-benzyl-2-(furan-2-ylmethyl)imidazo[1,2-a]pyrazin-3(7H)-one]",0.001
